From US20240209028A1, “CNP COMPOUNDS” (priority 2022, published 2024) come the findings set out here.

Structures are written as SMILES. Starred links: 1 amine or outer side, 2 acyl side, 3 side chain; linkers in the order of their positions; H or OH if unused. Positions of bridges follow the written chain, without caps; N, C: chain ends. Residues, ends and D or L forms follow the SMILES beside them. *: point of attachment. C18 diacid = O=C(O)CCCCCCCCCCCCCCCCC(=O)*; γGlu = O=C(O)[C@H](CCC(=O)[*:2])N[*:1]

The half-life is the time in which the quantity being followed falls by half. Usually bioavailability stands for dose-corrected exposure relative to a reference, in per cent.

Series [1] is described as follows: Accelerated chemical stability (RP-UPLC recovery and LCMS degradation pattern, 37° C.). It counts as physicochemical. Set-up: Isomers TZ / Isomers 2 W / Loss of 18 amu TZ / Loss of 18 amu 2 W / Fragments TZ / Fragments 2 W / Fragments 1 W / Fragments 3 W / Fragments 4 W / Fragments 5 W / Fragments 6 W / Others 1 W / Others 3 W / Others 4 W / Others 5 W / Others 6 W / Isomers 1 W / Isomers 3 W / Isomers 4 W / Isomers 5 W / Isomers 6 W / Loss of 18 amu 1 W / Loss of 18 amu 3 W / Loss of 18 amu 4 W / Loss of 18 amu 5 W / Loss of 18 amu 6 W: unit not given here. The note with it: LCMS, 5 mM sodium acetate, 250 mM glycerol, pH 4. The protocol:
In order to determine the chemical stability of CNP compounds in formulation, samples of CNP compounds in buffer were exposed to accelerated chemical degradation by heating. The stability of a given peptide was assessed by measuring recovery of intact peptide by quantification by RP-UPLC. To assess the chemical degradation pattern samples were also analysed by LC-MS.
Sample preparation: Samples for the 2 week study were prepared according to the principles described in Example 5.
Samples for the 6 week study were prepared by dissolving lyophilized peptide in buffer (8 mM phosphate, 250 mM glycerol, pH 7.4) to a nominal peptide concentration of 5000 nmol/ml followed by pH adjustment with 0.1 N HCl to pH 6.5.
Incubation: For the 2 week study a time-zero (TZ) sample was pulled and stored at −18° C. and the remaining volume was incubated at 37° C. Samples were pulled and stored at −18° C. after 2 weeks of incubation. Frozen samples were thawed, diluted to about 200 nmol/mL and the extent of chemical degradation was determined using LCMS as described.
For the 6 week study a time-zero (TZ) sample was pulled and stored at −18° C. and the remaining volume was incubated at 37° C. Samples were pulled on a weekly basis and stored at −18° C. until the last sampling time point at 6 weeks. Frozen samples were thawed, diluted to about 200 nmol/mL and the extent of chemical degradation was determined using RP-UPLC and LCMS as described.
Analysis of peptide recovery by RP-UPLC: The RP-UPLC method was performed on a Waters ACQUITY H-CLASS UPLC system fitted with a PDA detector. Separation was carried out on an ACQUITY UPLC BEH C8 Column (130 Å, 1.7 μm, 2.1 mm×150 mm) operating at a column temperature of 50° C. with eluent A (19.59 mM NH4H2PO4 41.71 mM (NH4)2HPO4, pH 6.5 and MeCN 9:1 v:v) and eluent B (80% MeCN in water). UV-detection was carried out at 214 nm. The analysis was performed by injection of 3 μL of sample onto the column which was eluted with a 1-step linear gradient of eluents A and B from 27 to 30% B over 20 minutes followed by a wash at 95% B over 2 minutes followed by a re-equilibration phase for 7 minutes at a constant flow rate of 0.3 mL/min. This yielded an analysis time of 30 minutes per sample. The area of the peak corresponding to intact CNP compound was given on a percentage scale relative to the total peptide peak area.
Analysis of chemical degradation patterns by LCMS: Samples were analysed on a […] UPLC from Thermo Scientific, using a Waters Acquity C18 reversed-phase column, 300 Å, […] particles 1 mm×150 mm. The compounds were separated by a linear gradient of solvent B from 5% to 55% over 48 minutes, using solvent A: water, 0.1% formic acid with 0.02% TFA and solvent B: acetonitrile, 0.1% formic acid with 0.02% TFA. Mass spectra were acquired by a Q Exactive Plus hybrid Quadrupole-Orbitrap mass spectrometer, BioPharma option (Thermo Scientific) interfaced with H-ESI II ion source. Data acquisitions were performed with a m/z 500 to 2000 scan range and a resolution of 30000.
The data list was aggregated into a summed table of the compounds. The table headers were defined as follows: […]
Results: The results from LCMS analysis of a 2 week accelerated degradation study on several CNP compounds of the present invention are summarised in Table 12. The results from RP-UPLC and LCMS analysis of a 6 week accelerated degradation study on CNP compound 9482 (Chem. 137) is summarised in Table 13 and Table 14 respectively.

In the next series the target is neprilysin (NEP) (Homo sapiens, UniProt P08473). The series is described as follows: In vitro neprilysin stability. The settings on record: recombinant human neprilysin (rhNEP), pH 7.4.
Sequence of neprilysin (NEP) (P08473 whole entry): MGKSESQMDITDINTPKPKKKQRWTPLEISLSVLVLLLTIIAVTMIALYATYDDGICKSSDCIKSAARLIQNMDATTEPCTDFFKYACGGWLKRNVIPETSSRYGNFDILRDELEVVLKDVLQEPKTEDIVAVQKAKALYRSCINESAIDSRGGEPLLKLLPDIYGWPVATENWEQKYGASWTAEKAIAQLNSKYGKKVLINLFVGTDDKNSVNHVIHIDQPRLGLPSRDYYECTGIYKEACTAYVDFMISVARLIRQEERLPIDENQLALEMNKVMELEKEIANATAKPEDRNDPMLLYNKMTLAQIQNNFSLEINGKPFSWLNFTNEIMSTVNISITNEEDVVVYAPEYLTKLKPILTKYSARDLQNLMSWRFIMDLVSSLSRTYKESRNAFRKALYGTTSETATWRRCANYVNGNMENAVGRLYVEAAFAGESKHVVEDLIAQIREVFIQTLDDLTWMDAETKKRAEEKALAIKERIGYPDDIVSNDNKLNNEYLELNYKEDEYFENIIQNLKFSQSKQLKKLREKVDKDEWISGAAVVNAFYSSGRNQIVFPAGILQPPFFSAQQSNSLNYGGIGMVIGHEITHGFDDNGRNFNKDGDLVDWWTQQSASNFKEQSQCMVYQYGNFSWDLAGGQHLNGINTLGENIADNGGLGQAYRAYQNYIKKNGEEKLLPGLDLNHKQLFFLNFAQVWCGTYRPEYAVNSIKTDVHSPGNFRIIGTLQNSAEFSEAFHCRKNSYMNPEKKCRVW
A short description of series [2]: PK after i.v. and s.c. administration to Göttingen minipig. The settings on record: female, Göttingen, minipig, in vivo. The protocol:
The purpose of this study was to investigate pharmacokinetic and pharmacodynamic properties after intravenous (i.v.) and subcutaneous (s.c.) administration to Gottingen Minipig and domestic LYD pig, and to estimate bioavailability after s.c. dosing. Quantitative plasma analysis of CNP and cGMP levels were performed as described in
Animals and dosing: The pharmacokinetic and pharmacodynamic studies in Gottingen Minipig or domestic LYD pig were conducted at CRO Minerva Imaging or Novo Nordisk A/S, respectively. CNP compounds were dosed to normal female 1) Gottingen minipigs 6-12 months of age with an average weight of 22 kg or 2) domestic LYD pigs 4-5 months of age with and average weight of 80 kg. At least one week prior to dosing, permanent central venous catheters were implanted for blood sampling and intravenous (i.v.) dosing. For subcutaneous (s.c.) dosing, the pigs were ultrasound scanned and the optimal injection area laterally on the neck marked by a permanent tattoo. An insulin pen (NovoPen Echo or NovoPen 4) and insulin needle (NovoFine 32G/4 mm or NovoTwist 32G/5 mm) were used for accurate deposition of the CNP formulations in the subcutaneous fat tissue with the needle perpendicular to the skin.
CNP compounds were formulated according to the principles in General Methods of Preparation—Method G and were either A) 8 mM sodium phosphate, 250 mM glycerol, pH 6.5, B) 5 mM sodium acetate, 250 mM glycerol, pH 4.0, C) 5 mM sodium acetate, 240 mM propylene glycol, pH=4.0, D) 8 mM sodium phosphate, 250 mM glycerol, pH 7.5 or E) 20 mM sodium phosphate, 223 mM propylene glycol, pH 6.0.
Intravenously, the CNP compounds were dosed at 30-60 nmol/kg to Minipig and 15-43 nmol/kg to domestic pig using formulations A-E. Subcutaneously, the CNP compounds were dosed at 55-62 nmol/kg to Minipig and 20-30 nmol/kg to domestic pig using formulations A-D.
Sampling: Blood samples of approximately 1 mL were collected pre dose and up to 14 days post dose into EDTA-coated tubes (8 mM) for cGMP and CNP compound analysis by LC-MS. In few instances, cGMP was only analysed up to 48 hours post dose after intravenous dosing in domestic LYD pig. The blood samples were kept on wet ice for maximum 30 minutes until centrifugation for 10 minutes at 4° C. and minimum 1500G, and the plasma samples were stored at −20° C. until analysis.
Plasma concentration-time profiles were analyzed by non-compartmental PK analysis using Phoenix WinNonlin 8.1, Pharsight Inc., Mountain View, CA, USA. Calculation of the area under the plasma concentration-time curve (AUC) was based on the “linear up log down” method, and uniform weighting was used for estimation of the terminal rate constant (λz). S.c. bioavailability (F) was calculated as the dose-normalized AUC (AUC/dose) after s.c. administration divided by the AUC/dose after i.v. administration. […]

Protocol for neprilysin (NEP): Therefore, an in vitro neprilysin stability assay was set up to test the neprilysin mediated degradation of selected CNP compounds.
Procedure: In short, the assay buffer consisted of PBS-buffer (pH 7.4, ThermoFisher Scientific) with a final concentration of 0.005% v/v tween 20 (Sigma-Aldrich). Recombinant human neprilysin (rhNEP; R&D Systems) and the CNP compounds were dissolved in assay buffer. Native CNP22 (0065, Chem. 1) was included as positive control on each day of incubation. Initially, the CNP compound (the final concentration was 1000 nM) was pre-incubated in assay buffer for 10 min at 37° C. The assay was started by adding either rhNEP (final concentration was 2 μg protein per mL) or assay buffer (adsorption experiment) and the incubation was conducted at 37° C. […] The mixture was centrifuged at 13000 rpm at 4° C. for 20 minutes. After centrifugation, one volume of supernatant was mixed with one volume of Milli-Q water.
Analysis by LCMS: The mixture was analysed by LCMS using an Acquity UPLC Peptide CSH C18 analytical column from Waters (130 Å, 1.7 μm, 1*50 mm) operated at 60° C. A gradient elution was conducted with a Nexera UHPLC system (Shimadzu) using mobile phase A (consisting of Milli-Q water with 0.1% formic acid) and mobile phase B (consisting of acetonitrile with 0.1% formic acid). The flow was 0.3 ml/min. A zenoTOF 7600 mass spectrometer (Sciex) was used as detector and operated in positive electrospray ionisation mode. Data was recorded in full scan mode (m/z 300-1700).
Calibration curves were prepared in assay buffer and treated as study samples. These samples were used for calculating the concentration of the relevant CNP compound in the in vitro samples. Quality control samples were included. For at least 75% of the standards and QCs, the deviation between nominal and calculated concentration was below 20%.
All incubations were conducted in duplicate. Data was reported as percent remaining at 90 min (based on calculated concentrations) compared to the average concentration in the 0.5-minute time point samples.

Regarding `CC[C@H](C)[C@@H]1NC(=O)[C@H](CCCNC(=N)N)NC(=O)[C@H](CCC(=O)O)NC(=O)[C@H](CC(C)C)NC(=O)[C@@H]2CCCN2C(=O)[C@H](CC(C)C)NC(=O)CNC(=O)[C@H](Cc2ccccc2)NC(=O)[C@@H](NC(=O)CNC(=O)[C@H](CO)NC(=O)[C@H](CO)NC(=O)[C@H](CC(C)C)NC(=O)CNC(=O)[C@H](CCCCN)NC(=O)[C@H](CCCCN)NC(=O)[C@H](CCC(N)=O)NC(=O)[C@H](C)NC(=O)CNC(=O)[C@H](CCCCN)NC(=O)[C@H](Cc2ccc(O)cc2)NC(=O)[C@H](CCCCN)NC(=O)[C@H](CCCNC(=N)N)NC(=O)[C@H](C)NC(=O)[C@H](CCC(N)=O)NC(=O)[C@@H]2CCCN2C(=O)[C@H](Cc2c[nH]cn2)NC(=O)[C@H](CCC(=O)O)NC(=O)[C@H](CCC(N)=O)NC(=O)CC[C@H](NC(=O)CC[C@H](NC(=O)CC[C@H](NC(=O)CC[C@H](NC(=O)CCCCCCCCCCCCCCCCC(=O)O)C(=O)O)C(=O)O)C(=O)O)C(=O)O)CSSC[C@@H](C(=O)O)NC(=O)CNC(=O)[C@H](CC(C)C)NC(=O)CNC(=O)[C@H](CO)NC(=O)[C@H](CC(C)C)NC(=O)[C@H](CO)NC(=O)CNC1=O` [Compound 9483] ({C18 diacid-γGlu-γGlu-γGlu-γGlu}-QEHPQARKYKGAQKKGLSSGCFGLPLERIGSLSGLGC-OH; disulfide 21-37), in series [1] (2 weeks at 37° C.), the “Fragments 2 W” value amounted to 0, the “Isomers 2 W” value turned out to be 0, the “Loss of 18 amu 2 W” value is on record as 0 and the Others 2 W stood at 0.6%. In series [1] (time zero), the “Fragments TZ” value amounted to 0, the “Isomers TZ” value turned out to be 0, the “Loss of 18 amu TZ” value was determined as 0 and the Others TZ is 0.2%. In addition, the fraction remaining at 1.5 h, 1000 nM on neprilysin (NEP) was determined as 106%. In series [2] (iv), this compound gave a clearance of 1.04 mL/h/kg and a half-life of 88 h. In series [2] (sc), this compound gave a bioavailability of 44% and a half-life of 75 h.
